For the test, the target named is ALK1 kinase (Homo sapiens (Human), UniProt P37023). Briefly: In vitro enzyme inhibition using scintillation of incorporated radio label (flashplate assay). In kind it is biochemical. As to conditions: biotinylated α-casein, 33P-ATP, 500 nM ATP.
Sequence of ALK1 kinase (P37023 22-503): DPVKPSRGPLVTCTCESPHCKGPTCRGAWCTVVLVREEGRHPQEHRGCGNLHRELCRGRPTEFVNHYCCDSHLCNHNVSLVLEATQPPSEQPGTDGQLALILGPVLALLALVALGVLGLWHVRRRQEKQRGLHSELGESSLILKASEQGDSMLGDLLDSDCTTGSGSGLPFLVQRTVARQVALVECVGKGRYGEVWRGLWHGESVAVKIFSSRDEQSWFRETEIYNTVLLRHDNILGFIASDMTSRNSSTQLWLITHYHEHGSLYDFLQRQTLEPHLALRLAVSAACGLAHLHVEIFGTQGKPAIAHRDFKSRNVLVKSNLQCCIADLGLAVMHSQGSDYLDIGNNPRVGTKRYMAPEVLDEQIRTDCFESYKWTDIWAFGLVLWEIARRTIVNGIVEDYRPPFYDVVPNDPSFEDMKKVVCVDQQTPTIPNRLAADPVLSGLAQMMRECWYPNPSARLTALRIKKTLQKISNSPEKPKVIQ

By IC50 is commonly meant the concentration that gives 50% inhibition. Consider `CCCc1cc(-c2ccc(CO)cc2)c2c(N)ncnn12` [Example 1, [4-(4-Amino-7-propylpyrrolo[2,1-f][1,2,4]triazin-5-yl)phenyl]methanol], for which the IC50 stood at 2 nM.

As to `CCCc1cc(-c2cc(F)c(CO)c(F)c2)c2c(N)ncnn12` [Example 2, [4-(4-Amino-7-propylpyrrolo[2,1-f][1,2,4]triazin-5-yl)-2,6-difluorophenyl]methanol], the half-maximal inhibitory concentration (IC50) was 2.8 nM.

The compound `Nc1ncnn2c(CCCO)cc(-c3ccc(CO)cc3)c12` [Example 3, 3-{4-Amino-5-[4-(hydroxymethyl)phenyl]pyrrolo[2,1-f][1,2,4]triazin-7-yl}propan-1-ol] yielded a half-maximal inhibitory concentration (IC50) of 4 nM.

On to `Nc1ncnn2c(C(O)C3CC3)cc(-c3cc(F)c(CO)c(F)c3)c12` (stereo not shown) [Example 5, {4-Amino-5-[3,5-difluoro-4-(hydroxymethyl)phenyl]pyrrolo[2,1-f][1,2,4]triazin-7-yl}(cyclopropyl)methanol], for which the IC50 is 1.3 nM.

On to `Nc1ncnn2c1c(-c1cc(F)c(CO)c(F)c1)cc2[C@H]1CC[C@H](O)CC1` [Example 7, trans-4-[4-Amino-5-[3,5-difluoro-4-(hydroxymethyl)phenyl]pyrrolo[2,1-f][1,2,4]triazin-7-yl]-cyclohexanol], for which inhibition was half-maximal at 2 nM (IC50).

In turn, `Nc1ncnn2c([C@@H]3CCCNC3)cc(-c3cc(F)c(CO)c(F)c3)c12` [Example 11, (4-{4-Amino-7-[(3R)-piperidin-3-yl]pyrrolo[2,1-f][1,2,4]triazin-5-yl}-2,6-difluorophenyl)methanol] yielded an IC50 of 1.9 nM.

For `Nc1nc(-c2cc(-c3ccc(CO)cc3)c3c(N)ncnn23)cs1` [Example 17, {4-[4-Amino-7-(2-amino-1,3-thiazol-4-yl)pyrrolo[2,1-f][1,2,4]triazin-5-yl]phenyl}methanol], the half-maximal inhibitory concentration (IC50) turned out to be 2 nM.

In the case of `Nc1ncnn2c(CN3CCOCC3)cc(-c3cc(F)c(CO)c(F)c3)c12` [Example 20, {4-[4-Amino-7-(morpholin-4-ylmethyl)pyrrolo[2,1-f][1,2,4]triazin-5-yl]-2,6-difluorophenyl}-methanol], the IC50 came to 30 nM.

`Nc1ncnn2c(CN3CCOCC3)cc(-c3ccc(CO)c(F)c3)c12` [Example 21, {4-[4-Amino-7-(morpholin-4-ylmethyl)pyrrolo[2,1-f][1,2,4]triazin-5-yl]-2-fluorophenyl}methanol] had an IC50 of 25 nM.

The compound `Nc1ncnn2c(CN3CCOCC3)cc(-c3ccc(CO)c(Cl)c3)c12` [Example 22, {4-[4-Amino-7-(morpholin-4-ylmethyl)pyrrolo[2,1-f][1,2,4]triazin-5-yl]-2-chlorophenyl}methanol] registered an IC50 of 17 nM.

Values taken from patent publication US9040691B2, “Hydroxymethylaryl-substituted pyrrolotriazines as ALK1 inhibitors” (BAYER INTELLECTUAL PROPERTY GMBH, priority 2011, dated 2015).
